pIC50: −log10 of the molar value.
These molecules were tested against T1, Serine protease 1 (Bos taurus, UniProt P00760) (assay: TF-FVIIa Enzyme Inhibition Assay). Settings: 25 °C.
T1 sequence (P00760 whole entry): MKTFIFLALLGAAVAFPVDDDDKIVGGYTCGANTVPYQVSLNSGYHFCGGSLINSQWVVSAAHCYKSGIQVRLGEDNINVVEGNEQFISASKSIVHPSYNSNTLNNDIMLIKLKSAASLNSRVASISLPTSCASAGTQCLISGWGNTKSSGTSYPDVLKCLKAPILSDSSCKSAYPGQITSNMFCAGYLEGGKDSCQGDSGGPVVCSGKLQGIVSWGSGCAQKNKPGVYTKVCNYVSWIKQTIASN

Q: With `CC(C)CNC(=O)c1ccc(-c2ccccc2C(=O)Nc2ccc(C(=N)N)cc2)c(C(=O)O)c1` as the molecule, how does the pIC50 read?
A: 6.77

Q: How did the pIC50 turn out when `COc1ccc(-c2ccc(C(=O)NCC(C)C)cc2C(=O)O)c(C(=O)Nc2ccc(C(=N)N)cc2)c1` [substituted biphenyl derivative, 24] was run?
A: 6.09

Q: How did the pIC50 turn out when `CC(C)CNC(=O)c1ccc(-c2ccc(O)cc2C(=O)Nc2ccc(C(=N)N)cc2)c(C(=O)O)c1` [substituted biphenyl derivative, 36a] was run?
A: 6.41

Q: `CC(C)CNC(=O)c1ccc(-c2ccc(-c3ccsc3)cc2C(=O)Nc2ccc(C(=N)N)cc2)c(C(=O)O)c1` [substituted biphenyl derivative, 36aa] was tested. Which pIC50 did it give?
A: 6.42

Q: How did the pIC50 turn out when `CC(C)CNC(=O)c1ccc(-c2ccc(-c3ccco3)cc2C(=O)Nc2ccc(C(=N)N)cc2)c(C(=O)O)c1` [substituted biphenyl derivative, 36ab] was run?
A: 6.43

Q: How did the pIC50 turn out when `CC(C)CNC(=O)c1ccc(-c2ccc(-c3ccoc3)cc2C(=O)Nc2ccc(C(=N)N)cc2)c(C(=O)O)c1` [substituted biphenyl derivative, 36ac] was run?
A: 6.33

Q: `CC(C)CNC(=O)c1ccc(-c2ccc(-c3ccc[nH]3)cc2C(=O)Nc2ccc(C(=N)N)cc2)c(C(=O)O)c1` [substituted biphenyl derivative, 36ad] was tested. Which pIC50 did it give?
A: 6.37

Q: How did the pIC50 turn out when `CC(C)CNC(=O)c1ccc(-c2ccc(-c3cccn3C)cc2C(=O)Nc2ccc(C(=N)N)cc2)c(C(=O)O)c1` [substituted biphenyl derivative, 36ae] was run?
A: 6.39

Q: How did the pIC50 turn out when `CC(C)CNC(=O)c1ccc(-c2ccc(-c3nccs3)cc2C(=O)Nc2ccc(C(=N)N)cc2)c(C(=O)O)c1` [substituted biphenyl derivative, 36af] was run?
A: 5.83

Q: `CC(C)CNC(=O)c1ccc(-c2ccc(Cc3cccs3)cc2C(=O)Nc2ccc(C(=N)N)cc2)c(C(=O)O)c1` [substituted biphenyl derivative, 36ag] was tested. Which pIC50 did it give?
A: 5.82

Q: `CC(C)CNC(=O)c1ccc(-c2ccc(-c3ccsc3CO)cc2C(=O)Nc2ccc(C(=N)N)cc2)c(C(=O)O)c1` [substituted biphenyl derivative, 36ai] was tested. Which pIC50 did it give?
A: 5.52

Q: `CC(C)CNC(=O)c1ccc(-c2ccc(-c3sccc3CO)cc2C(=O)Nc2ccc(C(=N)N)cc2)c(C(=O)O)c1` [substituted biphenyl derivative, 36aj] was tested. Which pIC50 did it give?
A: 5.36

Q: `CC(C)CNC(=O)c1ccc(-c2ccc(-c3cscc3CO)cc2C(=O)Nc2ccc(C(=N)N)cc2)c(C(=O)O)c1` [substituted biphenyl derivative, 36ak] was tested. Which pIC50 did it give?
A: 6.29

Q: `CC(C)CNC(=O)c1ccc(-c2ccc(-c3cscc3CN=[N+]=[N-])cc2C(=O)Nc2ccc(C(=N)N)cc2)c(C(=O)O)c1` [substituted biphenyl derivative, 36am] was tested. Which pIC50 did it give?
A: 5.93

Q: With `CC(C)CNC(=O)c1ccc(-c2ccc(-c3cscc3CN)cc2C(=O)Nc2ccc(C(=N)N)cc2)c(C(=O)O)c1` [substituted biphenyl derivative, 36an] as the molecule, how does the pIC50 read?
A: 5.75

Q: How did the pIC50 turn out when `CC(C)CNC(=O)c1ccc(-c2ccc(-c3ccoc3CO)cc2C(=O)Nc2ccc(C(=N)N)cc2)c(C(=O)O)c1` [substituted biphenyl derivative, 36ao] was run?
A: 6.13

Q: How did the pIC50 turn out when `CC(C)CNC(=O)c1ccc(-c2ccc(-c3cocc3CO)cc2C(=O)Nc2ccc(C(=N)N)cc2)c(C(=O)O)c1` [substituted biphenyl derivative, 36ap] was run?
A: 5.64

Q: With `CC(C)CNC(=O)c1ccc(-c2ccc(-c3occc3CO)cc2C(=O)Nc2ccc(C(=N)N)cc2)c(C(=O)O)c1` [substituted biphenyl derivative, 36aq] as the molecule, how does the pIC50 read?
A: 6.11

Q: With `C=Cc1ccc(-c2ccc(C(=O)NCC(C)C)cc2C(=O)O)c(C(=O)Nc2ccc(C(=N)N)cc2)c1` [substituted biphenyl derivative, 36b] as the molecule, how does the pIC50 read?
A: 6.33

Q: How did the pIC50 turn out when `CCc1ccc(-c2ccc(C(=O)NCC(C)C)cc2C(=O)O)c(C(=O)Nc2ccc(C(=N)N)cc2)c1` [substituted biphenyl derivative, 36c] was run?
A: 5.22

Q: `C#Cc1ccc(-c2ccc(C(=O)NCC(C)C)cc2C(=O)O)c(C(=O)Nc2ccc(C(=N)N)cc2)c1` [substituted biphenyl derivative, 36f] was tested. Which pIC50 did it give?
A: 5.54

Q: `C=C(C)c1ccc(-c2ccc(C(=O)NCC(C)C)cc2C(=O)O)c(C(=O)Nc2ccc(C(=N)N)cc2)c1` [substituted biphenyl derivative, 36g] was tested. Which pIC50 did it give?
A: 6.28

Q: `C=C=Cc1ccc(-c2ccc(C(=O)NCC(C)C)cc2C(=O)O)c(C(=O)Nc2ccc(C(=N)N)cc2)c1` [substituted biphenyl derivative, 36h] was tested. Which pIC50 did it give?
A: 6.25

Q: How did the pIC50 turn out when `CC#Cc1ccc(-c2ccc(C(=O)NCC(C)C)cc2C(=O)O)c(C(=O)Nc2ccc(C(=N)N)cc2)c1` [substituted biphenyl derivative, 36i] was run?
A: 5.78

Q: `C/C=C\Cc1ccc(-c2ccc(C(=O)NCC(C)C)cc2C(=O)O)c(C(=O)Nc2ccc(C(=N)N)cc2)c1` [substituted biphenyl derivative, 36j] was tested. Which pIC50 did it give?
A: 5.87

Q: With `CC(C)=CCc1ccc(-c2ccc(C(=O)NCC(C)C)cc2C(=O)O)c(C(=O)Nc2ccc(C(=N)N)cc2)c1` [substituted biphenyl derivative, 36k] as the molecule, how does the pIC50 read?
A: 6.02

Q: With `CC(C)CNC(=O)c1ccc(-c2ccc(/C=C\CO)cc2C(=O)Nc2ccc(C(=N)N)cc2)c(C(=O)O)c1` [substituted biphenyl derivative, 36m] as the molecule, how does the pIC50 read?
A: 5.75

Q: `C=C(CO)c1ccc(-c2ccc(C(=O)NCC(C)C)cc2C(=O)O)c(C(=O)Nc2ccc(C(=N)N)cc2)c1` [substituted biphenyl derivative, 36n] was tested. Which pIC50 did it give?
A: 5.45

Q: `C=C(CCO)c1ccc(-c2ccc(C(=O)NCC(C)C)cc2C(=O)O)c(C(=O)Nc2ccc(C(=N)N)cc2)c1` [substituted biphenyl derivative, 36o] was tested. Which pIC50 did it give?
A: 5.66

Q: `CC(C)CNC(=O)c1ccc(-c2ccc(C#CCCO)cc2C(=O)Nc2ccc(C(=N)N)cc2)c(C(=O)O)c1` [substituted biphenyl derivative, 36q] was tested. Which pIC50 did it give?
A: 6.40

Q: How did the pIC50 turn out when `CC(C)CNC(=O)c1ccc(-c2ccc(C(O)CO)cc2C(=O)Nc2ccc(C(=N)N)cc2)c(C(=O)O)c1` (stereo not drawn) [substituted biphenyl derivative, 36s] was run?
A: 4.65

Q: `CC(C)CNC(=O)c1ccc(-c2ccc(-c3ccccc3)cc2C(=O)Nc2ccc(C(=N)N)cc2)c(C(=O)O)c1` [substituted biphenyl derivative, 36v] was tested. Which pIC50 did it give?
A: 6.38

Q: With `CC(C)CNC(=O)c1ccc(-c2ccc(Cc3ccccc3)cc2C(=O)Nc2ccc(C(=N)N)cc2)c(C(=O)O)c1` [substituted biphenyl derivative, 36w] as the molecule, how does the pIC50 read?
A: 6.24

Q: How did the pIC50 turn out when `CC(C)CNC(=O)c1ccc(-c2ccc(-c3ccncc3)cc2C(=O)Nc2ccc(C(=N)N)cc2)c(C(=O)O)c1` [substituted biphenyl derivative, 36x] was run?
A: 5.92

Q: `CC(C)CNC(=O)c1ccc(-c2ccc(-c3cccnc3)cc2C(=O)Nc2ccc(C(=N)N)cc2)c(C(=O)O)c1` [substituted biphenyl derivative, 36y] was tested. Which pIC50 did it give?
A: 5.52

Q: How did the pIC50 turn out when `CC(C)CNC(=O)c1ccc(-c2ccc(-c3cccs3)cc2C(=O)Nc2ccc(C(=N)N)cc2)c(C(=O)O)c1` [substituted biphenyl derivative, 36z] was run?
A: 6.62

Each molecule was assayed against T2, Coagulation factor VII (Homo sapiens, UniProt P08709) (assay: TF-FVIIa Enzyme Inhibition Assay). Settings: 25 °C.
T2 sequence (P08709 whole entry): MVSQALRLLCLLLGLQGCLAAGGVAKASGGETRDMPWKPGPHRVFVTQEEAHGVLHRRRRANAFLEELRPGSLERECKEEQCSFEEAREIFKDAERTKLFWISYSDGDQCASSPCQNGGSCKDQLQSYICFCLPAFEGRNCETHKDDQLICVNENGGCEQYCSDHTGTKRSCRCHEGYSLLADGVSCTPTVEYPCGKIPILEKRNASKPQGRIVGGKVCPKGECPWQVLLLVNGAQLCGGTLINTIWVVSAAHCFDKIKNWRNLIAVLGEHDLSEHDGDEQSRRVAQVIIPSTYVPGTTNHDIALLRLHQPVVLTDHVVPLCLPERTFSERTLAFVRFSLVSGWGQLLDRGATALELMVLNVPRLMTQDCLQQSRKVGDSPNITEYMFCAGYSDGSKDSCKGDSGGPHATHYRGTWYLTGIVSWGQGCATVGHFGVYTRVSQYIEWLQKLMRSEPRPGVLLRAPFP

Q: How did the pIC50 turn out when `N=C(N)c1ccc(NC(=O)c2ccccc2-c2ccccc2C(=O)O)cc1` [substituted biphenyl derivative, 9] was run?
A: 5.24

Same assay, conditions: pH 7.2; 23 °C

Q: With `CC(C)CNC(=O)c1ccc(-c2ccc(/C=C\CO)cc2C(=O)Nc2ccc(C(=N)N)cc2)c(C(=O)O)c1` [substituted biphenyl derivative, 36m] as the molecule, how does the pIC50 read?
A: 7.28

— BindingDB's records for doi:10.1016/j.bmc.2009.04.013 (Biocryst Pharmaceuticals, 2009)
